{
  "source": "patent US20090238852A1",
  "about": "“METHODS FOR CONTROLLING INTRACELLULAR CALCIUM LEVELS ASSOCIATED WITH AN ISCHEMIC EVENT” (University of Utah Research Foundation, priority 2008, published 2009)",
  "key": {"[1]": {"test_system": "pigs, 75 min LAD balloon occlusion and 3 h reperfusion", "assay": "Closed chest porcine model of cardiac ischemia/reperfusion: infarct size (NEC/AAR)", "type": "in vivo, pig", "conditions": "repeated at 90 min reperfusion", "source_text": "To study the utility of 2-O, 3-O desulfated heparin (ODSH) in reducing ischemic tissue injury from injurious Ca^++ overload, a closed chest porcine model of cardiac ischemia was used. The study was designed to determine if previous findings indicating the protective effect of ODSH in reducing myocardial infarction reperfusion injury in open chest dogs were reproducible in an animal model of ischemia/reperfusion injury more relevant to humans. […] Yorkshire-cross pigs (Palmetto Research Swine, Reevesville, S.C.) of either sex, weighing 25-35 kg, were used for the experiment was employed. Animals were premedicated with an intramuscular injection of ketamine (30 mg/kg), acepromazine (1.1 mg/kg), and atropine (0.05 mg/kg). Pigs were induced with an IV injection of thiopental (10 mg/kg) and maintained with continuous inhalation of isoflurane (1-1.5%). Aspirin (81 mg) was administered by IV prior to the experiment.\nArterial access was achieved via bilateral femoral artery cut-downs for the insertion of 8F sheaths. Central venous and carotid access was achieved via a neck incision to expose the external jugular vein and common carotid artery. […] Baseline cardiodynamic and hemodynamic data were measured using a solid state transducer-tipped catheter in the left ventricle (Millar Instruments, Houston, Tex.) to measure left ventricular pressure, and a fluid-filled transducer connected to the side port of the femoral artery sheath to measure peripheral arterial pressure. Approximately 3-4 million neutron-activated microspheres (BioPhysics Assay Laboratory, Inc, Worcester, Ma) (15 μm) were delivered through a pig-tail catheter into the left ventricle over a 30 second period, to quantify regional myocardial blood flow (RMBF). […] Balloon occlusion time was 75 minutes with coronary occlusion confirmed by contrast angiography, ST segment changes on electrocardiography, and quantitatively confirmed by microspheres delivered at the end of ischemia, as described above. […]"}, "[2]": {"test_system": "blood coagulation (aPTT)", "assay": "Phase I bolus plus 72 hour infusion study: aPTT", "type": "in vivo, human", "conditions": "from relationship of aPTT change and ODSH level, FIG. 23", "procedure": "A study was performed in eight (8) healthy adult male and female subjects to assess the effects of a bolus dose and 72 hour infusion of 2-O, 3-O desulfated heparin. The study was a Phase I study with a three day treatment period. Doses were adjusted to maintain an aPTT level of 40-45 seconds. Subjects were between the ages of 18 and 60, were not pregnant, and were normal in body weight. They all had normal coagulation function and hemoglobin values at baseline.\nSubjects received an initial bolus of 8 mg/kg of ODSH over 15 minutes, followed by 72 hours continuous infusion beginning at 0.58 mg/kg/hr. For each subject ODSH as a 50 mg/ml formulation was diluted with normal saline and administered as a bolus infused over 15 minutes containing the calculated amount of ODSH the subject was to receive, followed by infusion of ODSH diluted in saline. The infusion dose was adjusted to maintain an aPTT of 40-45 seconds. […] Using values for aPTT and ODSH levels, pharmacokinetic parameters were calculated by noncompartmental methods using a commercial software program (PhAST 2.3-001). The following pharmacokinetic parameters were calculated as above: Cmax; Kel; tmax; AUC O-t; AUCinf, t1/2; CL; and Vdss."}, "[3]": {"test_system": "platelets with HIT antibody", "procedure": "The second technique employed was flow cytometric platelet analysis. In this functional test, platelets in whole blood are activated by heparin or heparin analog in the presence of heparin antibody in serum from a patient clinically diagnosed with HIT. Using flow cytometry, platelet activation was determined in two manners: by the formation of platelet microparticles and by the increase of platelet surface bound P-selectin.\nSpecifically, whole blood drawn by careful double-syringe technique was anticoagulated with hirudin (10 μg/ml final concentration). An aliquot of whole blood (50 μL) was immediately fixed in 1 ml 1% paraformaldehyde (gating control). […] Samples were analyzed on an EPICS XL flow cytometer (Beckman-Couter; Hialeah, Fla.) for forward angle (FALS) and side angle light scatter, and for FITC and PE (phycoerythrin) fluorescence. […]\nUsing the gating control sample, amorphous regions were drawn to include single platelets and platelet microparticles. Platelet microparticles were distinguished from platelets on the basis of their characteristic flow cytometric profile of cell size (FALS) and FITC fluorescence (CD61 platelet marker). […] Data was reported as a percentage of the total number of CD61-positive events analyzed."}, "[4]": {"test_system": "anti-coagulant activity (USP)", "conditions": "product of the procedure of U.S. Pat. No. 5,990,097; cited from earlier work"}},
  "data": [
    {"substance": "2-O, 3-O desulfated heparin [ODSH]", "values": [
      {"measurement": "infarct size (NEC/AAR) compared to control", "setting": "[1]; ODSH 5 mg/kg IV bolus 2 min before balloon deflation", "value": "No significant reduction in infarct size"},
      {"measurement": "infarct size (NEC/AAR) relative to control", "setting": "[1]; ODSH 15 mg/kg IV bolus 2 min before balloon deflation", "value": "significant infarct size reduction"},
      {"measurement": "infarct size (NEC/AAR) relative to control", "setting": "[1]; ODSH 45 mg/kg IV bolus 2 min before balloon deflation", "value": "significant infarct size reduction"},
      {"measurement": "aPTT above baseline at ODSH blood concentrations of 100 μg/mL", "setting": "[2]", "value": "approximately 50 seconds"},
      {"measurement": "aPTT absolute value at ODSH blood concentrations of 100 μg/mL", "setting": "[2]", "value": "about 75 seconds"},
      {"measurement": "platelet microparticle formation versus saline control", "setting": "[3]", "value": "no level of platelet microparticle formation above that of the saline control incubations"},
      {"measurement": "anti-coagulant activity", "setting": "[4]", "value": "less than 10 USP units/mg"}
    ]}
  ]
}
